The IC50 is the concentration at which inhibition is half-maximal.

For assay [1], the system named is THP-1. Briefly: Cytotoxicity against human THP1 cells after 21 hrs. In kind it is functional, cell-based. As to conditions: THP-1, 21 h.
In assay [2] the test system is THP-1. As to the kind of experiment: Cytotoxicity against human THP1 cells at 30 uM. In kind it is functional.
For assay [3], the target named is T1, P2X purinoceptor 7 (Homo sapiens) (UniProt Q99572).
T1 sequence (whole entry): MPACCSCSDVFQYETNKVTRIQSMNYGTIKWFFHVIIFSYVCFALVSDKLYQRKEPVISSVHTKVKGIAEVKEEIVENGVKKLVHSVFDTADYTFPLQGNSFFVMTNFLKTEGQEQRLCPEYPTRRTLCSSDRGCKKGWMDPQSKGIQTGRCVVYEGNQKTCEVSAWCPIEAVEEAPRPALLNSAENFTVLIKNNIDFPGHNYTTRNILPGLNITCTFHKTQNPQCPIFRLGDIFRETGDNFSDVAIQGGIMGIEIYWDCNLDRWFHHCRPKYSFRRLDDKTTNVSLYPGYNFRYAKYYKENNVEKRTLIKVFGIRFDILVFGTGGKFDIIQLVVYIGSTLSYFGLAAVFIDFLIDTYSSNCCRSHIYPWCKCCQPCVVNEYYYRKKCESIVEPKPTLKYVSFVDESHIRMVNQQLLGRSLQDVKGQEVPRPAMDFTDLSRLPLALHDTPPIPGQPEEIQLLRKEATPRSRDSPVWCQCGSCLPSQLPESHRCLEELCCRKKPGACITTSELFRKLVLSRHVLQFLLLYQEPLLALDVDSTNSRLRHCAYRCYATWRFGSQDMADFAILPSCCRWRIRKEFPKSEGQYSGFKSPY
As to the kind of experiment: Antagonist activity at P2X7 receptor expressed in human THP1 cells assessed as reduction of benzoylbenzoyl adenosine triphosphate-induced pore formation at 10 uM relative to control. In kind it is functional, cell-based. Details: scale not given: the % may be the effect or the level left. As to conditions: THP-1.

For assay [4], the system named is THP-1. Briefly: Increase in hemolysin-induced pore formation in human THP1 cells at 10 uM relative to control. Format: functional.
Assay [5] has as its system THP-1. Briefly: Cytotoxicity against human THP1 cells at 100 uM. In kind it is functional.
Assay [6] has as its system THP-1. Briefly: Increase in hemolysin-induced pore formation in human THP1 cells at 100 uM relative to control. In kind it is functional.

In assay [1], `C(=C/CCCC[n+]1cccc(C/C=C\CCCCCCc2cccnc2)c1)/CCCCCCc1cccnc1` [NIPHATOXIN C] gave an IC50 of 11.5 µM. The Activity in assay [2] was found to be 0%; in assay [3], 41%; in assay [4], 101%; in assay [5], 99%; in assay [6] it was 185%.

Source of the values: ChEMBL document CHEMBL1141361, “Niphatoxin C, a cytotoxic tripyridine alkaloid from Callyspongia sp” (J Nat Prod, 2007).
